Assay results: patent US20190030009A1, “COMPOUNDS AND COMPOSITIONS FOR THE TREATMENT OF CRYPTOSPORIDIOSIS” (Novartis AG, priority 2016, published 2019)

How the values were obtained:
[1] = target: C. parvum PI(4)K (Cryptosporidium parvum, UniProt Q5CVD3); test: CpPI(4)K enzymatic assay (Transcreener ADP2 FP); type: biochemical
Excerpt: The full-length coding sequence of C. parvum PI(4)K (cgd8_4500, 1114 amino acids) was codon-optimized for baculovirus expression, synthesized and cloned into pFastBac-HTb (Invitrogen 10584-027) in frame with the amino-terminal polyhistidine tag using the BamHI and Hindlll restriction sites. Recombinant pFastBacHTb-CpPI(4)K bacmid clones were generated by site-specific transposition in E. coli DH10Bac (Invitrogen 10361-012). The bacmid sequence was confirmed by direct DNA sequencing to confirm a lack of mutations across the whole gene. The subsequent steps for bacmid isolation, transfection and selection of the recombinant viruses were performed according to the manufacturer's protocol (Bac-to-Bac system #10359, Invitrogen).
SF9 cells, cultured in SF-900 III serum-free medium, were transfected with recombinant baculovirus at 1/200 (v/v) and incubated at 27° C. for 72 h. The pellets were collected after centrifugation and re-suspended in cell lysis buffer (20 mM Tris-HCl, pH 7.5, 300 mM NaCl, 1 mM DTT, 20 mM imidazole, 0.01% Triton X-100 and 1× complete protease inhibitor cocktail without EDTA (Roche Diagnostics 04693116001)). The cell suspension was lysed by sonication and the clarified supernatant was loaded onto a 1 ml HisTrap affinity column (GE Healthcare) pre-equilibrated with buffer A (20 mM Tris-HCl, pH 7.5, 300 mM NaCl, 1 mM DTT, 20 mM Imidazole, and 1× complete protease inhibitor cocktail without EDTA). The column was washed with buffer B (buffer A containing 45 mM imidazole) and the bound protein of interest was eluted with buffer C (buffer A with 90 mM imidazole). The fractions containing CpPI(4)K were pooled, concentrated using Amicon Ultra-15 and purified by a gel-filtration column (Hi-Load 26/60 Superdex 200, GE Healthcare) equilibrated with 20 mM Tris, pH 7.5, 300 mM NaCl, 1 mM DTT and 1× protease inhibitor cocktail without EDTA. The concentrations of the purified protein (Mw 132.39 kda) was determined by using the protein molar extinction coefficient (ε280 nm=133,810 M^−1 cm^−1). Aliquots were flash frozen in liquid nitrogen and immediately stored at −80° C.
The CpPI(4)K enzymatic assay was performed as described earlier with a some modifications (McNamara et al., 2013). Briefly, L-α-phosphatidylinositol (Avanti Polar Lipid 840046), dissolved in 3% n-octylglucoside (Roche Diagnostics 10634425001), was used as the lipid substrate for the PI(4)K activity assay. CpPI(4)K was assayed using Transcreener ADP2 FP detection kit (BellBrook 3010) in a black, solid 384-well plate (Corning 3575). The final assay volume was 10 μl and contained 3 nM of the respective CpPI(4)K construct in 10 mM Tris, pH 7.5, 1 mM DTT, 3 μM ATP, 5 mM Mn2+, 0.05% Triton X-100 and 10 μM phosphatidylinositol/octylglucoside. The enzyme reaction was performed for 50 minutes at room temperature and was stopped by adding 10 μl of detection mix containing 1× stop buffer (50 mM HEPES, pH7.5, 400 mM NaCl, 20 mM EDTA, and 0.02% Brij-35), 2 nM AMP Alexa Fluor 633 tracer, and 20 μg ml^−1 ADP antibody. Fluorescence polarization measurements were performed on the Infinite M1000 plate reader (Tecan) with λex=635 nm and λem=680 nm (20-nm bandwidth). IC50 values were calculated using Graphpad Prism software.
The inhibitory concentration (IC50) of selected compounds on the C. parvPI(4)K activity is provided in the third column [Cp_PI4K_enz IC50 (μM)] of Table II.

[2] = Cytotoxicity against HepG2; type: cell-based; conditions: human, HepG2 cells (ATCC HB-8065), 5 days exposure
Procedure, shortened: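 Cells seeded at 10^5 per well, held 24 h at 37 °C, then exposed to two-fold serial dilutions of compound for 5 days. Viability read with Cell Proliferation Kit II (XTT); values reported as CC50.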

C. parvum PI(4)K, sequence (Q5CVD3 entry or part of it): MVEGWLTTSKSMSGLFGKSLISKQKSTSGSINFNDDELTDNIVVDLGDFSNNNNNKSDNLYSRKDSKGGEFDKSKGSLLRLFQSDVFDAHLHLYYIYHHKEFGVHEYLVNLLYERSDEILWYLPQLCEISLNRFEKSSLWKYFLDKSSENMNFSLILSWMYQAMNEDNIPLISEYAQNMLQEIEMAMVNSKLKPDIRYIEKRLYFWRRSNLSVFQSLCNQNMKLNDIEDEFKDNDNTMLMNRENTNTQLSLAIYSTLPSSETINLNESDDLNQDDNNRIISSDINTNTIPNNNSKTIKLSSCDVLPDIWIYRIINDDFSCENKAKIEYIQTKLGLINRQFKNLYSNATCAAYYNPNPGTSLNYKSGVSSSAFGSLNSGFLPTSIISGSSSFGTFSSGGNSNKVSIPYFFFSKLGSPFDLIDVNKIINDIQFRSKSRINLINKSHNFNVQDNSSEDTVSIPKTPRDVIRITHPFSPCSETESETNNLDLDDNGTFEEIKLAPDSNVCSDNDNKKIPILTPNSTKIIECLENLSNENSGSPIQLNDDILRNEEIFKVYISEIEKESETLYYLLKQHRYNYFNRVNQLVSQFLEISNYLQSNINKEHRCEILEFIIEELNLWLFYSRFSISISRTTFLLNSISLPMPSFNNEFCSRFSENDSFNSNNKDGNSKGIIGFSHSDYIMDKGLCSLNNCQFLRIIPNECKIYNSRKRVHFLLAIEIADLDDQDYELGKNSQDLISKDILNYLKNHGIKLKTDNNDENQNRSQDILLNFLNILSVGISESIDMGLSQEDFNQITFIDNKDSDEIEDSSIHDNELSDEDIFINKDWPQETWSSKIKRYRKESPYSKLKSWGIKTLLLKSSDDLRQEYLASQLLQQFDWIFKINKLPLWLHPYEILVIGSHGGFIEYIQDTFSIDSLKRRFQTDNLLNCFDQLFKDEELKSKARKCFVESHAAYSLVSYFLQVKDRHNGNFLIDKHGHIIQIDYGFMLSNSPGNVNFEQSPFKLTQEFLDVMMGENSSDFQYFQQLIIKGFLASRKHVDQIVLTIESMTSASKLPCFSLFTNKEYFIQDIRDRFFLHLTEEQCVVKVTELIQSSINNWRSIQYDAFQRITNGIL

SMILES | IC50 [1] [nM] | CC50 at 5 days [2] [nM]
N#Cc1ccc(N(C(=O)c2ccn3ncc(-c4ccc(C(=O)NC5COC5)cc4)c3c2)C2CC2)nc1 [Example 131] | 329 | > 50000
N#Cc1ccc(N(C(=O)c2ccn3ncc(-c4ccc(C(N)=O)cc4)c3c2)C2CC2)nc1 [Example 120] | 40 | 23700
N#Cc1ccc(N(C(=O)c2ccn3ncc(-c4ccc(C(=O)NC5CC5)cc4)c3c2)C2CC2)nc1 [Example 123] | 38 | 17200
CCN(C(=O)c1ccn2ncc(-c3ccc(C(=O)NC)nc3)c2c1)c1ccc(C#N)cn1 [Example 150] | 219 | 9820
CNC(=O)c1ccc(-c2cnn3ccc(C(=O)N(c4ccc(C(F)(F)F)cn4)C4CCC4)cc23)cc1 [Example 160] | 8 | 2090
CNC(=O)c1ccc(-c2cnn3ccc(C(=O)N(c4ccc(C#N)cn4)C(C)C)cc23)cc1 [Example 91] | 21 | 18700
CNC(=O)c1ccc(-c2cnn3ccc(C(=O)N(c4ccc(Cl)cn4)C4CC4)cc23)cc1 [Example 124] | 14 | 21000
CNC(=O)c1ccc(-c2cnn3ccc(C(=O)N(c4ccc(C#N)cn4)C4CCC4)cc23)cc1 [Example 112] | 72 | 5020
CNC(=O)c1ccc(-c2cnn3ccc(C(=O)N(c4ccc(C(F)(F)F)cn4)C(C)C)cc23)cc1 [Example 153] | 6 | 20600
CCN(C(=O)c1ccn2ncc(-c3ccc(C(=O)NC)cc3)c2c1)c1ccc(C#N)cn1 [Example 90] | 8 | 14800
CC(C)NC(=O)c1ccc(-c2cnn3ccc(C(=O)N(c4ccc(C#N)cn4)C4CC4)cc23)cc1 [Example 121] | 860 | 33200
CCNC(=O)c1ccc(-c2cnn3ccc(C(=O)N(c4ccc(C#N)cn4)C4CC4)cc23)cc1 [Example 127] | 3 | 40200
CCN(C(=O)c1ccn2ncc(-c3ccc(C(=O)NC)cc3)c2c1)c1ccc(C(F)(F)F)cn1 [Example 96] | 3 | 7140
CNC(=O)c1ccc(-c2cnn3ccc(C(=O)N(NC)c4ccc(C#N)cc4)cc23)cn1 [Example 92] | 57 | 8520
CNC(=O)c1ccc(-c2cnn3ccc(C(=O)N(c4ccc(C#N)c(OC)n4)C4CC4)cc23)cc1 [Example 149] | 4 | 23300
CNC(=O)c1ccc(-c2cnn3ccc(N(C)C(=O)c4ccc(C#N)cn4)cc23)cc1 [Example 94] | 117 | 31200
